Assay results taken from ChEMBL document CHEMBL4038293, “Synthesis and SAR studies of 3,6-disubstituted indazole derivatives as potent hepcidin production inhibitors” (Bioorg Med Chem Lett, 2017).
Calls of active or inactive are those of the source. The calls are words filed in the database; no cut-off is given here.

Tested on: not listed separately
Test: Inhibition of BMP6/hemojuvelin signalling pathway in human HepG2 cells assessed as reduction in hepcidin mRNA expression
Format: cell-based
Conditions: not given

Row | SMILES | IC50 [nM]
1 | Nc1ccc(-c2ccc3c(NC(=O)C4CC4)n[nH]c3c2)cc1 | 4500
2 | O=C(Nc1n[nH]c2cc(-c3ccc(CO)cc3)ccc12)C1CC1 | 1400
3 | Oc1ccc(-c2ccc3cn[nH]c3c2)cc1 | > 3000
4 | O=C(Nc1n[nH]c2cc(-c3ccc(O)cc3)ccc12)C1CC1 | 400
5 | O=C(Nc1n[nH]c2cc(-c3ccc(O)cc3)ccc12)c1ccccc1 | 470
6 | COc1ccc(C(=O)Nc2n[nH]c3cc(-c4ccc(O)cc4)ccc23)cc1 | 420
7 | O=C(Nc1n[nH]c2cc(-c3cccc(O)c3)ccc12)C1CC1 | 4900
8 | O=C(Nc1n[nH]c2cc(C3=CCC(O)CC3)ccc12)C1CC1 (centres undefined) | > 30000
9 | Nc1n[nH]c2cc(-c3ccc(O)cc3)ccc12 | 1000
10 | COc1ccccc1C(=O)Nc1n[nH]c2cc(-c3ccc(O)cc3)ccc12 | > 30000
11 | O=C(Nc1n[nH]c2cc(-c3ccccc3O)ccc12)C1CC1 | > 30000
12 | O=S(=O)(Nc1n[nH]c2cc(-c3ccc(O)cc3)ccc12)C1CC1 | > 10000
13 | O=C(Nc1n[nH]c2cc(-c3ccc(O)cc3)ccc12)c1ccc(Cl)cc1 | 980
14 | COc1cccc(C(=O)Nc2n[nH]c3cc(-c4ccc(O)cc4)ccc23)c1 | 700
15 | O=C(Nc1n[nH]c2cc(-c3ccc(O)cc3)ccc12)c1ccc(OCCN2CCCCC2)cc1 | 120
16 | CS(=O)(=O)Nc1ccc(-c2ccc3c(NC(=O)C4CC4)n[nH]c3c2)cc1 | > 30000
17 | O=C(NC1CC1)c1n[nH]c2cc(-c3ccc(O)cc3)ccc12 | 4200
18 | O=C(O)c1ccc(-c2ccc3c(NC(=O)C4CC4)n[nH]c3c2)cc1 | > 10000
19 | O=C(Nc1n[nH]c2cc(Cc3ccc(O)cc3)ccc12)C1CC1 | > 30000
20 | O=C(Nc1n[nH]c2ccc(-c3ccc4c(c3)CNC4)cc12)C1CC1 | 3100
21 | Oc1ccc(-c2ccc3c(NCC4CC4)n[nH]c3c2)cc1 | 1600
22 | CN(C)c1ccc(C(=O)Nc2n[nH]c3cc(-c4ccc(O)cc4)ccc23)cc1 | 330
23 | O=C(Nc1n[nH]c2cc(-c3ccc(O)cc3)ccc12)c1ccc(OCCN2CCOCC2)cc1 | 130
24 | COC(=O)c1ccc(C(=O)Nc2n[nH]c3cc(-c4ccc(O)cc4)ccc23)cc1 | 1100
25 | CC(=O)Nc1n[nH]c2cc(-c3ccc(O)cc3)ccc12 | 1100
26 | O=C(Nc1n[nH]c2cc(-c3ccc(O)cc3)ccc12)NC1CC1 | 940
27 | O=C(Nc1[nH]nc2cc(-c3ccc(O)nc3)ccc12)C1CC1 | > 30000
28 | O=C(Nc1n[nH]c2cc(-c3ccc(O)cc3)ccc12)C1CCCCC1 | 930
29 | CN1CCN(c2ccc(C(=O)Nc3n[nH]c4cc(-c5ccc(O)cc5)ccc34)cc2)CC1 | 85
30 | CN(C)CCOc1ccc(C(=O)Nc2n[nH]c3cc(-c4ccc(O)cc4)ccc23)cc1 | 160

Organism: Homo sapiens
Test: Inhibition of BMP6/hemojuvelin signalling pathway in human HepG2 cells assessed as reduction in hepcidin mRNA expression at 30 uM
Format: cell-based
Conditions: not given

Row | SMILES | inhibition [%]
31 | O=C(Nc1n[nH]c2cc(-c3ccccc3)ccc12)C1CC1 | 23
32 | O=C(Nc1n[nH]c2cccc(-c3ccccc3)c12)C1CC1 | 8
33 | O=C(Nc1n[nH]c2ccc(-c3ccccc3)cc12)C1CC1 | -4

Tested on: not listed separately
Test: Lipophilicity, log D of the compound
Format: physicochemical
Conditions: octanol/water

Row | SMILES | logD
34 | O=C(Nc1n[nH]c2cc(-c3ccc(O)cc3)ccc12)c1ccc(OCCN2CCOCC2)cc1 | 3.4

Tested on: not listed separately
Test: Metabolic stability in mouse liver microsomes assessed as compound remaining at 0.5 mg/mL after 0.5 hrs
Format: ADME, microsome
Conditions: read-out: Stability

Row | SMILES | remaining at 0.5 h [%]
35 | O=C(Nc1n[nH]c2cc(-c3ccc(O)cc3)ccc12)c1ccc(OCCN2CCOCC2)cc1 | 89

Tested on: not listed separately
Test: Cmax in C57BL/6J mouse at 30 mg/kg, ip
Format: ADME, organism-based
Set-up: dose 30 mg/kg, route intraperitoneal
Conditions: in vivo

Row | SMILES | Cmax [ng/mL]
36 | O=C(Nc1n[nH]c2cc(-c3ccc(O)cc3)ccc12)c1ccc(OCCN2CCOCC2)cc1 | 2640

Tested on: not listed separately
Test: Tmax in C57BL/6J mouse at 30 mg/kg, ip
Format: ADME, organism-based
Conditions: in vivo

Row | SMILES | Tmax [h]
37 | O=C(Nc1n[nH]c2cc(-c3ccc(O)cc3)ccc12)c1ccc(OCCN2CCOCC2)cc1 | 1.33

Tested on: not listed separately
Test: AUC in C57BL/6J mouse at 30 mg/kg, ip
Format: ADME, organism-based
Conditions: in vivo

Row | SMILES | AUC [ng·h/mL]
38 | O=C(Nc1n[nH]c2cc(-c3ccc(O)cc3)ccc12)c1ccc(OCCN2CCOCC2)cc1 | 6930

Tested on: Mus musculus
Test: Anti-inflammatory activity in C57BL/6J mouse assessed as reduction in IL-6 induced serum hepcidin level at 30 mg/kg, ip pretreated for 30 mins followed by IL-6 challenge measured after 4 hrs
Format: functional, organism-based
Conditions: not given

Row | SMILES | Activity
39 | O=C(Nc1n[nH]c2cc(-c3ccc(O)cc3)ccc12)c1ccc(OCCN2CCOCC2)cc1 | Active
